Data taken from the NIST ThermoML archive (doi:10.1016/j.jct.2013.11.022).

Test: mn = molality of the nth substance listed, in mol/kg
Details: 101.33 kPa, Liquid; for viscosity: Capillary tube (Ostwald / Ubbelohde) method; for speed of sound: Sing-around technique in a fixed-path interferometer; for mass density: Vibrating tube method

NCC(=O)O [2-aminoacetic acid] + O
Details	mass density [kg/m3]	speed of sound [m/s]	viscosity [mPa·s]
293.15 K, m1 = 0.05	999.804	1486.2	1.013
293.15 K, m1 = 0.0999	1001.4	1488.6	1.022
293.15 K, m1 = 0.1499	1002.99	1491.1	1.029
293.15 K, m1 = 0.2001	1004.57	1493.6	1.036
293.15 K, m1 = 0.2504	1006.14	1496	1.039
293.15 K, m1 = 0.2999	1007.67	1498.4	1.048
293.15 K, m1 = 0.3501	1009.21	1500.8	1.056
293.15 K, m1 = 0.3998	1010.72	1503.2	1.06
298.15 K, m1 = 0.05	–	1500.3	0.8991
298.15 K, m1 = 0.0999	1000.21	1502.7	0.908
298.15 K, m1 = 0.1499	1001.78	1505.1	0.9168
298.15 K, m1 = 0.2001	1003.34	1507.5	0.9232
298.15 K, m1 = 0.2504	1004.9	1510	0.9281
298.15 K, m1 = 0.2999	1006.41	1512.3	0.933
298.15 K, m1 = 0.3501	1007.93	1514.7	0.9379
298.15 K, m1 = 0.3998	1009.43	1517	0.946
303.15 K, m1 = 0.05	–	1512.6	0.8077
303.15 K, m1 = 0.0999	998.773	1514.9	0.8177
303.15 K, m1 = 0.1499	1000.33	1517.3	0.8258
303.15 K, m1 = 0.2001	1001.88	1519.6	0.8319
303.15 K, m1 = 0.2504	1003.42	1522	0.8398
303.15 K, m1 = 0.2999	1004.92	1524.2	0.8434
303.15 K, m1 = 0.3501	1006.43	1526.5	0.8511
303.15 K, m1 = 0.3998	1007.92	1528.8	0.8533
308.15 K, m1 = 0.05	995.577	1523.1	0.7296
308.15 K, m1 = 0.0999	997.132	1525.4	0.7366
308.15 K, m1 = 0.1499	998.677	1527.7	0.7404
308.15 K, m1 = 0.2001	1000.22	1530	0.7474
308.15 K, m1 = 0.2504	1001.75	1532.2	0.7518
308.15 K, m1 = 0.2999	1003.24	1534.4	0.7578
308.15 K, m1 = 0.3501	1004.74	1536.7	0.7641
308.15 K, m1 = 0.3998	1006.21	1538.9	0.7679
313.15 K, m1 = 0.05	–	1532.1	0.6609
313.15 K, m1 = 0.0999	–	1534.3	0.6662
313.15 K, m1 = 0.1499	–	1536.5	0.6686
313.15 K, m1 = 0.2001	–	1538.7	0.6721
313.15 K, m1 = 0.2504	999.881	1540.9	0.6759
313.15 K, m1 = 0.2999	1001.36	1543.1	0.6798
313.15 K, m1 = 0.3501	1002.86	1545.3	0.6851
313.15 K, m1 = 0.3998	1004.33	1547.5	0.6881

CCCCCCCCCCCCOS(=O)(=O)[O-].[Na+] [sodium dodecyl sulfate] + O
Details	mass density [kg/m3]	speed of sound [m/s]	viscosity [mPa·s]
293.15 K, m1 = 0.0001	998.198	1482.9	1.014
293.15 K, m1 = 0.0003	998.209	1482.9	1.014
293.15 K, m1 = 0.0005	998.221	1483	1.016
293.15 K, m1 = 0.002	998.31	1483.2	1.02
293.15 K, m1 = 0.004	998.425	1483.5	1.02
293.15 K, m1 = 0.006	998.538	1483.7	1.024
293.15 K, m1 = 0.008	998.647	1484	1.026
293.15 K, m1 = 0.01	998.75	1484.2	1.027
293.15 K, m1 = 0.012	998.851	1484.5	1.029
293.15 K, m1 = 0.014	998.949	1484.6	1.034
293.15 K, m1 = 0.016	999.048	1484.8	1.036
293.15 K, m1 = 0.018	999.145	1484.9	1.04
293.15 K, m1 = 0.02	999.237	1485	1.042
293.15 K, m1 = 0.022	999.338	1485.2	1.047
293.15 K, m1 = 0.024	999.426	1485.3	1.052
298.15 K, m1 = 0.0001	997.034	1497	0.895
298.15 K, m1 = 0.0003	997.045	1497	0.8952
298.15 K, m1 = 0.0005	997.057	1497.1	0.8955
298.15 K, m1 = 0.002	997.144	1497.3	0.8963
298.15 K, m1 = 0.004	997.255	1497.6	0.8969
298.15 K, m1 = 0.006	997.365	1497.8	0.8976
298.15 K, m1 = 0.008	997.472	1498.1	0.8981
298.15 K, m1 = 0.01	997.569	1498.4	0.899
298.15 K, m1 = 0.012	997.67	1498.6	0.9008
298.15 K, m1 = 0.014	997.768	1498.7	0.9073
298.15 K, m1 = 0.016	997.867	1498.9	0.9091
298.15 K, m1 = 0.018	997.957	1499	0.9114
298.15 K, m1 = 0.02	998.048	1499.1	0.9136
298.15 K, m1 = 0.022	998.142	1499.3	0.9191
298.15 K, m1 = 0.024	998.232	1499.4	0.9211
303.15 K, m1 = 0.0001	995.633	1509.3	0.801
303.15 K, m1 = 0.0003	995.644	1509.4	0.8015
303.15 K, m1 = 0.0005	995.655	1509.4	0.8018
303.15 K, m1 = 0.002	995.74	1509.6	0.8024
303.15 K, m1 = 0.004	995.848	1509.9	0.8028
303.15 K, m1 = 0.006	995.955	1510.2	0.8032
303.15 K, m1 = 0.008	996.058	1510.4	0.8037
303.15 K, m1 = 0.01	996.155	1510.7	0.8039
303.15 K, m1 = 0.012	996.252	1510.8	0.8054
303.15 K, m1 = 0.014	996.348	1511	0.8085
303.15 K, m1 = 0.016	996.441	1511.2	0.8114
303.15 K, m1 = 0.018	996.536	1511.3	0.8135
303.15 K, m1 = 0.02	996.624	1511.4	0.8161
303.15 K, m1 = 0.022	996.718	1511.6	0.8193
303.15 K, m1 = 0.024	996.807	1511.7	0.8206
308.15 K, m1 = 0.0001	994.016	1520	0.7228
308.15 K, m1 = 0.0003	994.026	1520	0.7232
308.15 K, m1 = 0.0005	994.037	1520	0.7236
308.15 K, m1 = 0.002	994.12	1520.2	0.7241
308.15 K, m1 = 0.004	994.224	1520.5	0.7245
308.15 K, m1 = 0.006	994.327	1520.8	0.725
308.15 K, m1 = 0.008	994.429	1521	0.7253
308.15 K, m1 = 0.01	994.524	1521.3	0.7259
308.15 K, m1 = 0.012	994.619	1521.5	0.7264
308.15 K, m1 = 0.014	994.715	1521.6	0.7279
308.15 K, m1 = 0.016	994.806	1521.8	0.73
308.15 K, m1 = 0.018	994.898	1521.9	0.7345
308.15 K, m1 = 0.02	994.988	1522	0.7388
308.15 K, m1 = 0.022	995.076	1522.2	0.7422
308.15 K, m1 = 0.024	995.164	1522.3	0.7465
313.15 K, m1 = 0.0001	992.2	1529	0.6564
313.15 K, m1 = 0.0003	992.21	1529	0.6566
313.15 K, m1 = 0.0005	992.22	1529.1	0.657
313.15 K, m1 = 0.002	992.299	1529.3	0.6576
313.15 K, m1 = 0.004	992.402	1529.5	0.6585
313.15 K, m1 = 0.006	992.5	1529.8	0.6599
313.15 K, m1 = 0.008	992.601	1530.1	0.6616
313.15 K, m1 = 0.01	992.696	1530.3	0.6628
313.15 K, m1 = 0.012	992.789	1530.5	0.6646
313.15 K, m1 = 0.014	992.884	1530.7	0.6667
313.15 K, m1 = 0.016	992.975	1530.8	0.6689
313.15 K, m1 = 0.018	993.061	1530.9	0.6718
313.15 K, m1 = 0.02	993.153	1531.1	0.6747
313.15 K, m1 = 0.022	993.239	1531.2	0.6775
313.15 K, m1 = 0.024	993.323	1531.3	0.6794
